Measured values published in patent US9868746B2, “Substituted 5-aminothieno[2,3-C]pyridazine-6-carboxamide analogs as positive allosteric modulators of the muscarinic acetylcholine receptor M4” (Vanderbilt University, priority 2012, dated 2018).
Like-named read-outs stand apart in the source and are kept apart here.

Molecular target: T1, mAChR M4 (Homo sapiens, UniProt P08173)
T1 construct: expressed in transfected cells; host or cells: CHO-K1 cells stably transfected with M4 cDNA and chimeric G-protein Gqi5
T1 sequence (P08173 1-479): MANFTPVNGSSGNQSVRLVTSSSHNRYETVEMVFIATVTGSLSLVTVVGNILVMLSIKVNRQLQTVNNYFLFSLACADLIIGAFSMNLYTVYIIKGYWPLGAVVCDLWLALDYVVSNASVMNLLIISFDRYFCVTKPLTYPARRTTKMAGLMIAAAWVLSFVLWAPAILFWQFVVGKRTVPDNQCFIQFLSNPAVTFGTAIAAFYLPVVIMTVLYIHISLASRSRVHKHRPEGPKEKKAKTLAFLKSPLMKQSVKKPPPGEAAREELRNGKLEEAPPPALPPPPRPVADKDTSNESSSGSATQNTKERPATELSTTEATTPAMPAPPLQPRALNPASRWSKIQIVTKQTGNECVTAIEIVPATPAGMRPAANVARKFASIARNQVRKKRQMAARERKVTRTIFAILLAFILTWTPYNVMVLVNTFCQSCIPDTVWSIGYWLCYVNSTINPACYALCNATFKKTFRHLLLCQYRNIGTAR
Experiment: mAChR M4 cell-based functional assay (calcium mobilization, potentiation of EC20 acetylcholine response)
Details: for Emax at 30 µM: % ACh maximum at 30 μM

[1] = mAChR M4 cell-based functional assay, >10,000 estimated for low potency compounds without plateau, read-out: EC50

| Compound | Emax at 30 µM [%] | EC50 [1] [nM] | EC50 (EC50 (nM)) [nM] |
| --- | --- | --- | --- |
| Cc1nnc2sc(C(=O)NCc3ccc(-c4ccc5c(c4)OCO5)cc3)c(N)c2c1C [Example B501] | 44 | 990 | – |
| CC(O)(c1ccc(CNC(=O)c2sc3nnc4c(c3c2N)CCCC4)cc1)C(F)(F)F (stereo not drawn) [Example B188] | 56 | 900 | – |
| Cc1nnc2sc(C(=O)NCc3ccc(S(=O)(=O)C(F)(F)F)cc3)c(N)c2c1C [Example B66] | 62 | – | – |
| Nc1c(C(=O)NCc2ccc3c(c2)OCCO3)sc2nnc3c(c12)CCCC3 [Example B56] | 54 | 72 | – |
| Cc1nnc2sc(C(=O)NC3CN(S(=O)(=O)CC(F)(F)F)C3)c(N)c2c1C [Example B119] | 68 | 82 | – |
| Cc1nnc2sc(C(=O)NCc3ccc(S(=O)(=O)CCO)cc3)c(N)c2c1C [Example B387] | 77 | 68 | – |
| Cc1nnc2sc(C(=O)NCc3ccc(Br)cc3)c(N)c2c1C [Example B448, 5-amino-N-(4-bromobenzyl)-3,4-dimethylthieno[2,3-c]pyridazine-6-carboxamide] | 75 | 18 | – |
| Cc1nnc2sc(C(=O)NC3CN(C(=O)c4ccc5c(c4)OCO5)C3)c(N)c2c1C [Example B133] | 74 | 76 | – |
| Cc1nnc2sc(C(=O)N3CC(NC(=O)CCc4ccccc4)C3)c(N)c2c1C [Example B177] | 53 | 970 | – |
| Cc1nnc2sc(C(=O)NCc3ccc([S+]([O-])C(F)F)cc3)c(N)c2c1C (stereo not drawn) [Example B478] | 71 | 23 | – |
| Cc1nnc2sc(C(=O)N3CC(NC(=O)C4CC4c4ccccc4)C3)c(N)c2c1C (stereo not drawn) [Example B182] | 59 | 2300 | – |
| Cc1nnc2sc(C(=O)N3CC(NS(=O)(=O)c4cccc5ncccc45)C3)c(N)c2c1C [Example B180] | 43 | 1100 | – |
| Cc1nnc2sc(C(=O)NCc3ccc(C#N)c(F)c3)c(N)c2c1C [Example B451] | 66 | 340 | – |
| Cc1nnc2sc(C(=O)NCc3ccc(-c4cccnc4)cc3)c(N)c2c1C [Example B464] | 63 | 11 | – |
| Cc1nnc2sc(C(=O)NC3CN(c4ccccc4)C3)c(N)c2c1C [Example B481] | 62 | 12 | – |
| Cc1nnc2sc(C(=O)NCc3ccc(S(=O)(=O)C(C)C)cc3)c(N)c2c1C [Example B48] | 77 | – | 48 |
| Cc1nnc2sc(C(=O)NC3CCN(c4cccnc4)C3)c(N)c2c1C (stereo not drawn) [Example B261] | 53 | 620 | – |
| COc1ccc(-c2ccc(CNC(=O)c3sc4nnc(C)c(C)c4c3N)cc2)cn1 [Example B486] | 61 | 230 | – |
| Cc1nnc2sc(C(=O)N3CC(F)(c4ccc([S+](C)[O-])cc4)C3)c(N)c2c1C (stereo not drawn) [Example B384] | 71 | 1100 | – |
| Cc1nnc2sc(C(=O)NC3CCN(C(=O)CC4CCCCC4)C3)c(N)c2c1C (stereo not drawn) [Example B241] | 64 | 860 | – |
| Cc1nnc2sc(C(=O)NC3CN(C(=O)C(C)(C)C)C3)c(N)c2c1C [Example B121] | 92 | 840 | – |

| Compound | Emax at 30 µM [%] | EC50 [1] [nM] | EC50 (EC50 (nM)) [nM] |
| --- | --- | --- | --- |
| Cc1nnc2sc(C(=O)N3C[C@@H]4C[C@@H]3CN4C(=O)Oc3ccccc3)c(N)c2c1C [Example B270] | 62 | > 10000 | – |
| Cc1nnc2sc(C(=O)NC3CN(Cc4ccc(F)cc4)C3)c(N)c2c1C [Example B46] | 38 | > 10000 | – |
| COC(=O)N1CC(NC(=O)c2sc3nnc(C)c(C)c3c2N)C1 [Example B153] | 83 | 230 | – |
| Cc1nnc2sc(C(=O)NCc3ccc(S(C)(=O)=O)cn3)c(N)c2c1C [Example B329] | 74 | 780 | – |
| COc1ccc(CNC(=O)c2sc3nnccc3c2N)cc1 [Example B2] | 61 | > 10000 | – |
| Cc1nnc2sc(C(=O)NCCNC(=O)c3ccc(F)cc3)c(N)c2c1C [Example B340] | 38 | 370 | – |
| Cc1nnc2sc(C(=O)N3CC(N=[N+]=[N-])(c4ccccc4)C3)c(N)c2c1C [Example B311] | 43 | 180 | – |
| Cc1nnc2sc(C(=O)NCC3CCS(=O)(=O)CC3)c(N)c2c1C [Example B149] | 44 | > 10000 | – |
| Cc1nnc2sc(C(=O)NCc3ccc(S(=O)(=O)C(C)(C)C(F)(F)F)cc3)c(N)c2c1C [Example B108] | 61 | 44 | – |
| Cc1nnc2sc(C(=O)NCc3ccc4c(ccn4C)c3)c(N)c2c1C [Example B196] | 69 | 61 | – |
| Cc1nnc2sc(C(=O)NC3CN(C(=O)c4ccccc4)C3)c(N)c2c1C [Example B160] | 71 | 78 | – |
| Cc1nnc2sc(C(=O)NC3CN(C(=O)c4cccc(F)c4)C3)c(N)c2c1C [Example B403] | 71 | 110 | – |
| Cc1nnc2sc(C(=O)N3CC(N)(c4ccccc4)C3)c(N)c2c1C [Example B306] | 51 | 1100 | – |
| CS(=O)(=O)c1ccc(CNC(=O)c2sc3nnc4c(c3c2N)CCCC4)cc1 [Example B58] | 64 | 240 | – |
| Cc1nnc2sc(C(=O)NCc3ccc4[nH]ccc4c3)c(N)c2c1C [Example B195] | 62 | 65 | – |
| Cc1nnc2sc(C(=O)NCc3ccc(O)c(F)c3)c(N)c2c1C [Example B158] | 66 | 28 | – |
| Cc1ccc(S(=O)(=O)N2CC(NC(=O)c3sc4nnc(C)c(C)c4c3N)C2)cc1F [Example B145] | 82 | 130 | – |
| CSc1ccc(CNC(=O)c2sc3nnc(C)c(C)c3c2N)cc1 [Example B26] | 76 | – | 11 |
| Cc1nnc2sc(C(=O)N3CC4CN(c5ncccn5)CC4C3)c(N)c2c1C (stereo not drawn) [Example B434] | 48 | 1100 | – |
| Cc1nnc2sc(C(=O)NCc3ccc4c(c3)CCO4)c(N)c2c1C [Example B27] | 76 | 42 | – |
| Cc1nnc2sc(C(=O)N3CCC[C@H]3C)c(N)c2c1C [Example B382] | 45 | > 10000 | – |

| Compound | Emax at 30 µM [%] | EC50 [1] [nM] | EC50 (EC50 (nM)) [nM] |
| --- | --- | --- | --- |
| Cc1nnc2sc(C(=O)NCCN(C)C(=O)c3ccc(F)cc3)c(N)c2c1C [Example B357] | 27 | > 10000 | – |
| Cc1cncc(-c2ccc(CNC(=O)c3sc4nnc(C)c(C)c4c3N)cc2)c1 [Example B499] | 71 | 200 | – |
| Cc1nnc2sc(C(=O)NC3CN(C(=O)CCCc4ccccc4)C3)c(N)c2c1C [Example B120] | 86 | 190 | – |
| Cc1nnc2sc(C(=O)N3CC(NCc4ccc(F)cc4)C3)c(N)c2c1C [Example B59] | 56 | 4100 | – |
| COc1ccc([C@@H]2C[C@H]2NC(=O)c2sc3nnc(C)c(C)c3c2N)cc1 (single isomer, unassigned) [Example B32] | 73 | 300 | – |
| Cc1nnc2sc(C(=O)NCc3ccc(F)nc3)c(N)c2c1C [Example B440] | 80 | 190 | – |
| Cc1nnc2sc(C(=O)N3CC(S(C)(=O)=O)C3)c(N)c2c1C [Example B406] | 54 | 1700 | – |
| Cc1nnc2sc(C(=O)N3C[C@@H]4C[C@@H]3CN4C(=O)c3ccccc3)c(N)c2c1C [Example B263] | 41 | > 10000 | – |
| COc1ccccc1OC(=O)N1CC(NC(=O)c2sc3nnc(C)c(C)c3c2N)C1 [Example B376] | 59 | 17 | – |
| Cc1nnc2sc(C(=O)N3CC4CN(C(=O)C5CCC5)CC4C3)c(N)c2c1C (stereo not drawn) [Example B385] | 55 | 2600 | – |
| Cc1nnc2sc(C(=O)NCc3ccc([S+]([O-])C(F)F)c(F)c3)c(N)c2c1C (stereo not drawn) [Example B465] | 61 | 15 | – |
| CCS(=O)(=O)c1ccc(CNC(=O)c2sc3nnc(C)c(C)c3c2N)cc1 [Example B49] | 64 | 48 | – |
| Cc1nnc2sc(C(=O)NCc3ccc(C(F)F)cc3)c(N)c2c1C [Example B260] | 81 | 34 | – |
| CC(=O)N1CC2CN(C(=O)c3sc4nnc(C)c(C)c4c3N)CC2C1 (stereo not drawn) [Example B278] | 54 | > 10000 | – |
| Cc1nnc2sc(C(=O)NC3CN(C(=O)C4CCC4)C3)c(N)c2c1C [Example B122] | 88 | 180 | – |
| Cc1nnc2sc(C(=O)N[C@H]3CCN(S(C)(=O)=O)C3)c(N)c2c1C [Example B82] | 59 | 460 | – |
| Cc1nnc2sc(C(=O)NC3CCN(C(=O)c4c(F)cccc4F)C3)c(N)c2c1C (stereo not drawn) [Example B243] | 78 | 590 | – |
| Cc1nnc2sc(C(=O)NCc3ccc(-c4cncc5ccccc45)cc3)c(N)c2c1C [Example B503] | 56 | 1100 | – |
| Cc1nnc2sc(C(=O)N3CC(NC(=O)Oc4ccccc4)C3)c(N)c2c1C [Example B167] | 65 | 470 | – |
| Cc1nnc2sc(C(=O)NC3CN(c4cccnc4)C3)c(N)c2c1C [Example B479] | 67 | 12 | – |
